Source: ChEMBL document CHEMBL3763120, “Phenyl Benzenesulfonylhydrazides Exhibit Selective Indoleamine 2,3-Dioxygenase Inhibition with Potent in Vivo Pharmacodynamic Activity and Antitumor Efficacy” (J Med Chem, 2016)

Key:
Homo sapiens [1] = organism: Homo sapiens; test: Inhibition of GABAA receptor central muscimol site (unknown origin) at 10 uM
[2] = biological target: Endothelin-1 receptor (Homo sapiens) (UniProt P25101); test: Inhibition of ETA receptor (unknown origin) at 10 uM
Mus musculus [3] = test: Toxicity in BalB/c mouse xenografted with CT26 cells assessed as change in body weight at 100 to 400 mg/kg, po bid for 22 days; type: organism-based; details: in vivo, 528 h
[4] = Plasma concentration in C57BL/6 mouse at 50 mg/kg, po after 2 hrs by LC-MS/MS analysis; type: ADME, organism-based
[5] = biological target: Beta-1 adrenergic receptor (Homo sapiens) (UniProt P08588); test: Inhibition of Adrenergic beta1 receptor (unknown origin) at 10 uM
[6] = Volume of distribution at steady state in Sprague-Dawley rat plasma at 2 mg/kg, iv by LC-MS/MS analysis; type: ADME, organism-based; details: Sprague-Dawley, plasma, read-out: Vdss
Homo sapiens [7] = organism: Homo sapiens; test: Inhibition of Platelet-activating factor (unknown origin) at 10 uM
[8] = biological target: Histamine H3 receptor (Homo sapiens) (UniProt Q9Y5N1); test: Inhibition of Histamine H3 receptor (unknown origin) at 10 uM
Histamine H3 receptor (Homo sapiens), sequence (Q9Y5N1 whole entry): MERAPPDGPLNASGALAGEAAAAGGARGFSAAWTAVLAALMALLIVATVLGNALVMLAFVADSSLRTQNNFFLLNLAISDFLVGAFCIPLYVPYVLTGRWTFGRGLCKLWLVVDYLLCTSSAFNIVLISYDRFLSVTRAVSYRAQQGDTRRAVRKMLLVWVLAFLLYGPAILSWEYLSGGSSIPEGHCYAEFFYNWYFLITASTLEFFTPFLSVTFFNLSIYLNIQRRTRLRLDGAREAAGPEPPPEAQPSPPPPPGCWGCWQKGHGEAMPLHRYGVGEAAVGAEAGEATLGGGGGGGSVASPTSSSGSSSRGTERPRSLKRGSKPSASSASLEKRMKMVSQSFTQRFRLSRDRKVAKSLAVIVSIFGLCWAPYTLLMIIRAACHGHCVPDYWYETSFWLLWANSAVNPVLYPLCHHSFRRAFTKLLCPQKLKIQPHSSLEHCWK

[9] = biological target: Delta-type opioid receptor (Homo sapiens) (UniProt P41143); test: Inhibition of Opiate delta1 receptor (unknown origin) at 10 uM
[10] = biological target: Glutamate [NMDA] receptor (Homo sapiens) (UniProt Q05586+Q12879+Q13224+O15399+O60391+Q14957+Q8TCU5); test: Inhibition of NMDA receptor phencyclidine binding site (unknown origin) at 10 uM
Homo sapiens [11] = organism: Homo sapiens; test: Inhibition of GABAA receptor central flunitrazepam site (unknown origin) at 10 uM
[12] = biological target: T1, Indoleamine 2,3-dioxygenase 1 (Homo sapiens, UniProt P14902); test: Inhibition of Indoleamine 2,3-dioxygenase in human HeLa cells in presence of L-tryptophan as substrate after 24 hrs in presence of L-tryptophan; type: cell-based
T1 sequence (P14902 whole entry): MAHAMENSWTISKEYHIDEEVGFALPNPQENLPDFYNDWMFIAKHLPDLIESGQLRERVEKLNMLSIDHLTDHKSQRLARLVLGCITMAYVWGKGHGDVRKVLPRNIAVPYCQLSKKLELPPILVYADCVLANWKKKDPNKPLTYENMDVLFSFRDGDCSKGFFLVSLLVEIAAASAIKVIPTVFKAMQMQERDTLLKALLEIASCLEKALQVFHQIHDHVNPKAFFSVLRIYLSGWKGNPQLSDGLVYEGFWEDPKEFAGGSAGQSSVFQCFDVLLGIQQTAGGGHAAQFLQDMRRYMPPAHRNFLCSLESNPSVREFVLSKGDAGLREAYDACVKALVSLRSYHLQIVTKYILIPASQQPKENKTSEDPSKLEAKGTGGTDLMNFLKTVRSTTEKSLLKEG

Homo sapiens [13] = organism: Homo sapiens; test: Inhibition of Purinergic P2Y receptor (unknown origin) at 10 uM
hERG (KCNH2) = hERG (KCNH2) (Homo sapiens, UniProt Q12809); test: Inhibition of human ERG at 10 uM
Homo sapiens [14] = organism: Homo sapiens; test: Inhibition of I2 imidazoline binding site (unknown origin) at 10 uM
CT26 [15] = test: Antitumor activity against mouse CT26 cells xenografted in Balb/c mouse assessed as reduction in tumor weight at 100 mg/kg bid for 18 days administered via oral gavage; type: functional; details: 432 h
[16] = biological target: 5-hydroxytryptamine receptor 3A (Homo sapiens) (UniProt P46098); test: Inhibition of 5HT3 receptor (unknown origin) at 10 uM
5-hydroxytryptamine receptor 3A (Homo sapiens), sequence (P46098 whole entry): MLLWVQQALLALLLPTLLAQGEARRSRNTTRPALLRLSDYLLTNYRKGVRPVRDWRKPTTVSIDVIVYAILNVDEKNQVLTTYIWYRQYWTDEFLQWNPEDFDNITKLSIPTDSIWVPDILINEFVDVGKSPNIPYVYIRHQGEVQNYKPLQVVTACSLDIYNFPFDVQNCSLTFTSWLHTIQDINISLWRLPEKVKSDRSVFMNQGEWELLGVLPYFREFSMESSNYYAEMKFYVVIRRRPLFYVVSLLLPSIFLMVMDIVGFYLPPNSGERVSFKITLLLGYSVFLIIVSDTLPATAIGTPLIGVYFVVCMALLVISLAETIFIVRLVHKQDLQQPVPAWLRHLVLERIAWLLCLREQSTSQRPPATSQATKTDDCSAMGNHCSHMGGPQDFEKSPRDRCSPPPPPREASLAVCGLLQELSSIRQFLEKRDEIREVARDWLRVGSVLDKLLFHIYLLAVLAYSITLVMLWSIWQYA

Mus musculus [17] = test: Decrease in ratio of kynurenine to tryptophan in C57BL/6 mouse at 50 mg/kg, po after 5 hrs by LC-MS/MS analysis; type: functional; details: C57BL/6, po
[18] = biological target: Sodium-dependent serotonin transporter (Homo sapiens) (UniProt P31645); test: Inhibition of Serotonin transporter (unknown origin) at 10 uM
[19] = biological target: Alpha-1A adrenergic receptor (Homo sapiens) (UniProt P35348); test: Inhibition of Adrenergic alpha1A receptor (unknown origin) at 10 uM
[20] = biological target: Estrogen receptor (Homo sapiens) (UniProt P03372); test: Inhibition of ERalpha (unknown origin) at 10 uM
Estrogen receptor (Homo sapiens), sequence (P03372 whole entry): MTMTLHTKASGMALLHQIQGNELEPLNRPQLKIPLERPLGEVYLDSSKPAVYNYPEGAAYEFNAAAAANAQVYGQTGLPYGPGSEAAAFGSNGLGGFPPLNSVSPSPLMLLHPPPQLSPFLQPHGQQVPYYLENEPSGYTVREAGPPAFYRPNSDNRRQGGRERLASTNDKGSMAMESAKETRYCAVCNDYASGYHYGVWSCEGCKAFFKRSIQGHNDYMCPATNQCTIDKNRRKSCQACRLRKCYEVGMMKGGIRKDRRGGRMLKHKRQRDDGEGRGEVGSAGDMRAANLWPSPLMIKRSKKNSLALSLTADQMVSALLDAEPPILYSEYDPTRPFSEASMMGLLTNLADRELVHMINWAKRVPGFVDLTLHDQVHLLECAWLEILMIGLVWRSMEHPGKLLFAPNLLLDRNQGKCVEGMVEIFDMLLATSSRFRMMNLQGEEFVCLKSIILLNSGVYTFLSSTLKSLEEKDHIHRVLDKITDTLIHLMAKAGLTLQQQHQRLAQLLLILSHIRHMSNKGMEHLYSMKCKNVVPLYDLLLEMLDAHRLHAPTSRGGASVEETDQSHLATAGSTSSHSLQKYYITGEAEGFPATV

[21] = biological target: Adenosine receptor A3 (Homo sapiens) (UniProt P0DMS8); test: Inhibition of Adenosine A3 receptor (unknown origin) at 10 uM
[22] = biological target: D(2) dopamine receptor (Homo sapiens) (UniProt P14416); test: Inhibition of Dopamine D2S receptor (unknown origin) at 10 uM
[23] = biological target: Sodium- and chloride-dependent GABA transporter 1 (Homo sapiens) (UniProt P30531); test: Inhibition of GABA transporter (unknown origin) at 10 uM
[24] = biological target: Sodium-dependent noradrenaline transporter (Homo sapiens) (UniProt P23975); test: Inhibition of Norepinephrine transporter (unknown origin) at 10 uM
[25] = biological target: T1, Indoleamine 2,3-dioxygenase 1; test: Inhibition of human Indoleamine 2,3-dioxygenase using L-tryptophan as substrate by emission fluorescence analysis
[26] = Clearance in Sprague-Dawley rat plasma at 2 mg/kg, iv by LC-MS/MS analysis; type: ADME, organism-based
[27] = biological target: Beta-2 adrenergic receptor (Homo sapiens) (UniProt P07550); test: Inhibition of Adrenergic beta2 receptor (unknown origin) at 10 uM
[28] = biological target: D(3) dopamine receptor (Homo sapiens) (UniProt P35462); test: Inhibition of Dopamine D3 receptor (unknown origin) at 10 uM
[29] = biological target: Thyroid hormone receptor (Homo sapiens) (UniProt P10827+P10828); test: Inhibition of Thyroid hormone receptor (unknown origin) at 10 uM; type: protein-complex assay
[30] = biological target: Sodium-dependent dopamine transporter (Homo sapiens) (UniProt Q01959); test: Inhibition of DAT (unknown origin) at 10 uM
Sodium-dependent dopamine transporter (Homo sapiens), sequence (Q01959 whole entry): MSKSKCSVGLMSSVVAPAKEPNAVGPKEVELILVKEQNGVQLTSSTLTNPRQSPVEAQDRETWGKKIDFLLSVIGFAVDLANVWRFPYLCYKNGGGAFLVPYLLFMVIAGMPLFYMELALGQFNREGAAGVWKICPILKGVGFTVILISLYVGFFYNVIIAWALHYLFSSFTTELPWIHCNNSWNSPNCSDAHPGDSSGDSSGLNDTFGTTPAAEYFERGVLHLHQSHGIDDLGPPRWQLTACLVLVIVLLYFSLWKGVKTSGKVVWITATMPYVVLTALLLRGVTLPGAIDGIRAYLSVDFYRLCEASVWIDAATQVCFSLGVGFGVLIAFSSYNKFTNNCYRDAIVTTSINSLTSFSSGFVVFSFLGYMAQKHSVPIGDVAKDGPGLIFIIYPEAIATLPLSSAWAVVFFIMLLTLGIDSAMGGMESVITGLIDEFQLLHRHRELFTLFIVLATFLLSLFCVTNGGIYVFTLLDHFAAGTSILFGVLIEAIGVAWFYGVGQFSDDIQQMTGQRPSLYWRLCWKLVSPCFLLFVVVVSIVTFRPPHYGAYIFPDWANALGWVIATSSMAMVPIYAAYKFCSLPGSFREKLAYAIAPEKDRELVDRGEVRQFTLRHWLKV

CT26 [31] = test: Antitumor activity against mouse CT26 cells xenografted in Balb/c mouse assessed as median time to end point at 400 mg/kg, po bid for 22 days; type: functional
[32] = biological target: D(1A) dopamine receptor (Homo sapiens) (UniProt P21728); test: Inhibition of Dopamine D1 receptor (unknown origin) at 10 uM
D(1A) dopamine receptor (Homo sapiens), sequence (P21728 whole entry): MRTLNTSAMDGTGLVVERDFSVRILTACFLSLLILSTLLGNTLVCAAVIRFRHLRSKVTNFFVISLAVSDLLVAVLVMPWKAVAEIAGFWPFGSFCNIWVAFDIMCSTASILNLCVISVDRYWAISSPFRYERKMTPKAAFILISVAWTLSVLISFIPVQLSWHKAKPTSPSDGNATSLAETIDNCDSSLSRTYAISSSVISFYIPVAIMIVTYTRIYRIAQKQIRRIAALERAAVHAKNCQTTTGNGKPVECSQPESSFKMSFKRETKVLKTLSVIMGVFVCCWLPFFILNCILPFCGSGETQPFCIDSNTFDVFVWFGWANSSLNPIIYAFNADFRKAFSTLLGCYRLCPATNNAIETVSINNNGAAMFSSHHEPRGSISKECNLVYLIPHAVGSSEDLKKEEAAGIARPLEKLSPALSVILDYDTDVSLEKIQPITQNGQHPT

[33] = Cmax in Sprague-Dawley rat plasma at 10 mg/kg, po by LC-MS/MS analysis; type: ADME, organism-based; set-up: dose 10 mg/kg, route oral
[34] = biological target: Muscarinic acetylcholine receptor M1 (Homo sapiens) (UniProt P11229); test: Inhibition of Muscarinic M1 receptor (unknown origin) at 10 uM
Muscarinic acetylcholine receptor M1 (Homo sapiens), sequence (P11229 whole entry): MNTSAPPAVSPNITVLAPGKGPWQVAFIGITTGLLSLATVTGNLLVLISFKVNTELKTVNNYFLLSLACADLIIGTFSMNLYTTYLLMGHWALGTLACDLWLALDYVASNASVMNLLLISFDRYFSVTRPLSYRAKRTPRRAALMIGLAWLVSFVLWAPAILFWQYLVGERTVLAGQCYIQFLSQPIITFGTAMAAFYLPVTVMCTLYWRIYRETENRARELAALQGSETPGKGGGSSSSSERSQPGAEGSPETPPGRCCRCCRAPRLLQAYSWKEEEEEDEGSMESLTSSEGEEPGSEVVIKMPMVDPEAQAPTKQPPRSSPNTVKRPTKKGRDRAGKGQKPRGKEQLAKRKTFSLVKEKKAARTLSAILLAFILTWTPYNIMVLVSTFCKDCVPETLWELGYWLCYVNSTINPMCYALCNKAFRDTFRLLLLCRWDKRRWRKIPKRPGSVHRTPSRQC

[35] = biological target: L-type calcium channel, benzothiazepine binding site (Homo sapiens, UniProt O60840+Q01668+Q13698+Q13936); test: Inhibition of L-type calcium channel benzothiazepine binding site (unknown origin) at 10 uM; type: protein assay
[36] = Plasma concentration in C57BL/6 mouse at 50 mg/kg, po after 5 hrs by LC-MS/MS analysis; type: ADME, organism-based
Mus musculus [37] = test: Decrease in ratio of kynurenine to tryptophan in Balb/c mouse tumor xenografted with CT26 cells at 100 mg/kg bid for 18 days administered via oral gavage after 6 hrs by LC-MS/MS analysis; type: functional
[38] = biological target: Alpha-1D adrenergic receptor (Homo sapiens) (UniProt P25100); test: Inhibition of Adrenergic alpha1D receptor (unknown origin) at 10 uM
[39] = biological target: 5-hydroxytryptamine receptor 1A (Homo sapiens) (UniProt P08908); test: Inhibition of 5HT-1A (unknown origin) at 10 uM
5-hydroxytryptamine receptor 1A (Homo sapiens), sequence (P08908 whole entry): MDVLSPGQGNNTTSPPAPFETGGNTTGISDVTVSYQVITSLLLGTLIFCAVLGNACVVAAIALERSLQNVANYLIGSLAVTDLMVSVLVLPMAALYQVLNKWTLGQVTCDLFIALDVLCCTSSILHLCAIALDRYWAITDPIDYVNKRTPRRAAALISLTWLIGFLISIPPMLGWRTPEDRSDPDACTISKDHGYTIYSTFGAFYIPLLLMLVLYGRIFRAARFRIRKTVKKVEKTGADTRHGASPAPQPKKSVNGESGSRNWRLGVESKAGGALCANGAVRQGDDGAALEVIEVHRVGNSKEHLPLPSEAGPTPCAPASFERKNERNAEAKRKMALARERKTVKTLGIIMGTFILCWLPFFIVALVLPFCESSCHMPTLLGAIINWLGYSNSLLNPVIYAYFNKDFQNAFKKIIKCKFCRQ

[40] = AUC (0 to infinity) in Sprague-Dawley rat plasma at 10 mg/kg, po by LC-MS/MS analysis; type: ADME, organism-based; set-up: dose 10 mg/kg, route oral, time infinity
CT26 [41] = test: Antitumor activity against mouse CT26 cells xenografted in Balb/c mouse assessed as tumor growth delay at 200 mg/kg, po bid for 22 days; type: functional; details: 528 h, read-out: TGI
[42] = biological target: B1 bradykinin receptor (Homo sapiens) (UniProt P46663); test: Inhibition of Bradykinin B1 receptor (unknown origin) at 10 uM
[43] = biological target: Histamine H1 receptor (Homo sapiens) (UniProt P35367); test: Inhibition of Histamine H1 receptor (unknown origin) at 10 uM
Histamine H1 receptor (Homo sapiens), sequence (P35367 whole entry): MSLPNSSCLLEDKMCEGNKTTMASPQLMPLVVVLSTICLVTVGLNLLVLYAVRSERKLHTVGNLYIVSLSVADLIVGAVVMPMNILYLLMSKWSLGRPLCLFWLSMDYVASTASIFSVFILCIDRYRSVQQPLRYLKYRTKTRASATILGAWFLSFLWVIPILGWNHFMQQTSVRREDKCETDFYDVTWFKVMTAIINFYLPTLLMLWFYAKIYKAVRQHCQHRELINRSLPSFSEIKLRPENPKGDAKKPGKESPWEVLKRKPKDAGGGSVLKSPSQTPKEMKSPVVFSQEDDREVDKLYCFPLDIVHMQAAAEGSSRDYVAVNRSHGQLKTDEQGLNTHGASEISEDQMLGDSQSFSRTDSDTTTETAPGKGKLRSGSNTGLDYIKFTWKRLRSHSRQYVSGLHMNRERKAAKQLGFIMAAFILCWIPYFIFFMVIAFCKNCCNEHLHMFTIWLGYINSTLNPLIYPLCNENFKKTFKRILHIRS

Endothelin-1 receptor (Homo sapiens), sequence (P25101 whole entry): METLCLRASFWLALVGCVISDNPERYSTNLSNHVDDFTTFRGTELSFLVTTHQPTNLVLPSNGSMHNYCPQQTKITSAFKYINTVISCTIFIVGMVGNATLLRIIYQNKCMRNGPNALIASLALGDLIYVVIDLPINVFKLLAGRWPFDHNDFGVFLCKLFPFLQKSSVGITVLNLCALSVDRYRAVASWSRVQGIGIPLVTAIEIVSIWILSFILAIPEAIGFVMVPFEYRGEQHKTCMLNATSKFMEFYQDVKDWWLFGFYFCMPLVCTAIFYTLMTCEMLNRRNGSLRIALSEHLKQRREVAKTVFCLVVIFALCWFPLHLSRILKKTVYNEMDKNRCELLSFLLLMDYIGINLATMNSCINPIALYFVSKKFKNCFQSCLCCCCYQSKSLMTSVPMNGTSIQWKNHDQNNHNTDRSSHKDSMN

**Q.** For `O=C1Cc2cc(S(=O)(=O)NNc3ccc(Br)cc3)ccc2N1`, which inhibition (Homo sapiens [1]) is on record?
**A.** Its inhibition is less than 50%.

**Q.** What about the inhibition [2] of the same compound?
**A.** The inhibition was less than 50%.

**Q.** And the Activity (Mus musculus [3])?
**A.** Its Activity is “Non-toxic”.

**Q.** And the concentration at 2 h [4]?
**A.** Its concentration at 2 h is 4 µM.

**Q.** What about the inhibition [5] of the same compound?
**A.** Its inhibition is less than 50%.

**Q.** And the Vd [6]?
**A.** Its Vd is 1.2 L/kg.

**Q.** And the inhibition (Homo sapiens [7])?
**A.** The inhibition was less than 50%.

**Q.** What about the inhibition [8] of the same compound?
**A.** Its inhibition is less than 50%.

**Q.** And the inhibition [9]?
**A.** Its inhibition is less than 50%.

**Q.** What about the inhibition [10] of the same compound?
**A.** The inhibition was less than 50%.

**Q.** What about the inhibition (Homo sapiens [11]) of the same compound?
**A.** The inhibition was less than 50%.

**Q.** What about the EC50 [12] of the same compound?
**A.** Its EC50 is 67.6 nM.

**Q.** What about the inhibition (Homo sapiens [13]) of the same compound?
**A.** Its inhibition is less than 50%.

**Q.** What about the inhibition at 10 µM (hERG (KCNH2)) of the same compound?
**A.** Its inhibition at 10 µM is less than 50%.

**Q.** What about the inhibition (Homo sapiens [14]) of the same compound?
**A.** The inhibition was less than 50%.

**Q.** What about the inhibition in vivo at 100 mg/kg (CT26 [15]) of the same compound?
**A.** Its inhibition in vivo at 100 mg/kg is 64%.

**Q.** What about the inhibition [16] of the same compound?
**A.** The inhibition was less than 50%.

**Q.** And the inhibition in vivo at 50 mg/kg (Mus musculus [17])?
**A.** Its inhibition in vivo at 50 mg/kg is 42%.

**Q.** What about the inhibition [18] of the same compound?
**A.** The inhibition was less than 50%.

**Q.** And the inhibition [19]?
**A.** The inhibition was less than 50%.

**Q.** And the inhibition [20]?
**A.** Its inhibition is less than 50%.

**Q.** And the inhibition [21]?
**A.** The inhibition was less than 50%.

**Q.** And the inhibition [22]?
**A.** The inhibition was less than 50%.

**Q.** And the inhibition [23]?
**A.** The inhibition was less than 50%.

**Q.** And the inhibition [24]?
**A.** The inhibition was 62%.

**Q.** What about the IC50 [25] of the same compound?
**A.** Its IC50 is 35.8 nM.

**Q.** And the clearance [26]?
**A.** Its clearance is 15.9 mL/min/kg.

**Q.** What about the inhibition [27] of the same compound?
**A.** Its inhibition is less than 50%.

**Q.** What about the inhibition [28] of the same compound?
**A.** Its inhibition is less than 50%.

**Q.** What about the inhibition [29] of the same compound?
**A.** The inhibition was less than 50%.

**Q.** What about the inhibition [30] of the same compound?
**A.** The inhibition was less than 50%.

**Q.** And the Time (CT26 [31])?
**A.** The Time was 7.4 days.

**Q.** What about the inhibition [32] of the same compound?
**A.** Its inhibition is less than 50%.

**Q.** And the Cmax [33]?
**A.** The Cmax was 2590 ng/mL.

**Q.** And the inhibition [34]?
**A.** Its inhibition is less than 50%.

**Q.** And the inhibition at 10 µM [35]?
**A.** The inhibition at 10 µM was less than 50%.

**Q.** And the concentration at 5 h [36]?
**A.** The concentration at 5 h was 2.2 µM.

**Q.** What about the inhibition in vivo at 100 mg/kg (Mus musculus [37]) of the same compound?
**A.** The inhibition in vivo at 100 mg/kg was 83%.

**Q.** What about the inhibition [38] of the same compound?
**A.** Its inhibition is less than 50%.

**Q.** What about the inhibition [39] of the same compound?
**A.** Its inhibition is less than 50%.

**Q.** What about the AUC(0-inf) [40] of the same compound?
**A.** The AUC(0-inf) was 7200 ng·h/mL.

**Q.** And the inhibition in vivo at 200 mg/kg (CT26 [41])?
**A.** The inhibition in vivo at 200 mg/kg was 63%.

**Q.** And the inhibition [42]?
**A.** Its inhibition is less than 50%.

**Q.** And the inhibition [43]?
**A.** Its inhibition is less than 50%.
